{
  "source": "patent US20240148701A1",
  "about": "“WOULD HEALING METHODS” (The University of Sydney, priority 2021, published 2024)",
  "key": {"[1]": {"tested_on": "human adult dermal microvascular endothelial cells (MVEC)", "assay": "Tubule formation in human adult dermal microvascular endothelial cells", "format": "cell-based", "settings": "CL 316,243 100 ng/ml", "protocol": "Human umbilical vein endothelial cells (HUVECs; Lonza C2519AS, pooled source, Australia) were grown using standard cell culture conditions in endothelial cell growth medium (EGM Plus®, containing 2% fetal bovine serum, Lonza, Australia). All cells were regularly confirmed to be mycoplasma negative. Two different pooled source cell lines were used in experiments and all were used within passages 2-4. Human adult dermal microvascular endothelial cells were also obtained from Lonza (CC-2543, Lonza Australia) and cultured as above but using endothelial growth medium 2-MV bulletkit. Endothelial colony forming cells (ECFCs) were derived from the peripheral blood of participants in the BioHEART study. This registered study (ACTRN12618001322224) complies with the Declaration of Helsinki and the study protocol and design has been approved by the Northern Sydney Local Health District Human Research Ethics Committee (HREC/17/HAWKE/343). […]\nOnce they were ˜70% confluent, cells were re-suspended in diluted EGM Plus® (1:3) and plated on reduced-growth factor extracellular matrix (15 mg/ml, Cultrex, Trevigen, USA) at a density of 1.5×10^4 cells/cm^2. […] Cells were incubated in an EVOS FL Auto Imaging system for 16 hours and tubule formation recorded every hour. Optimal tube formation occurred at the 8-hour timepoint; tubule number at this point was quantified manually using NIH Image J software. […]"}, "[2]": {"tested_on": "C57BL6/J mice", "assay": "Murine hind limb ischemia model, laser Doppler perfusion (non-diabetic mice)", "format": "in vivo, mouse", "protocol": "Male C57BL6/J mice 8-10 weeks of age were obtained from Australian BioResources (Moss Vale, NSW) with 12 hour light/dark cycles and free access to water and mouse chow (Specialty Feeds, Australia). Mice were housed in groups of 2-5 in standard cages within a Physical Containment Level 2 laboratory. For in vivo angiogenesis 16 mice underwent the femoral vascular ligation model. Mice were anaesthetized with 1.5-2% isoflurane vaporized in oxygen and constant body temperature was maintained. All mice received pre-operative and 24-hour post-operative analgesia (carprofen, 5 mg/kg s.c). A small incision (˜15 mm) was made in the hind limb skin directly over the femoral vasculature. A portion of the femoral artery and vein, distal to the origin of the profunda femoris artery and proximal to the saphenous artery, were isolated and two ligations were performed using 6-0 silk sutures. The femoral artery and vein were then excised between the ligation sites 27. An osmotic mini-pump (model 1002 [for 14 day protocols] or model 1004 [for 28 day protocols], Alzet, USA) containing either CL 316,243 (1 mg/kg/day) or vehicle (normal saline) was then implanted via the femoral skin opening and tunneled around and positioned in the dorsal flank. The mice were randomized 1:1 to treatment protocols prior to undergoing surgery. The skin was closed with non-continuous suture (Prolene 6-0, Johnson and Johnson Medical, Australia). Hind limb blood flow was assessed prior to ligation (baseline) and immediately after undergoing hind limb ischemia, with subsequent imaging at day 3, 7, 10, 14, 21 and 28 post hind limb ischemia. Some experiments were stopped at 14 days for assessment of hind limb histology and biochemistry. Software was used to analyze the perfusion flux (Moor, UK) and investigators were blinded to the treatment groups during the period of analysis. The rate of reperfusion in the hind limb was calculated as a ratio of blood flow in the ischemic versus non-ischemic contralateral limb."}},
  "data": [
    {"smiles": "C[C@H](Cc1ccc2c(c1)OC(C(=O)[O-])(C(=O)[O-])O2)NC[C@H](O)c1cccc(Cl)c1.[Na+].[Na+]", "note": "[CL 316,243]", "values": [
      {"measurement": "angiogenesis (tubule formation) in endothelial cells from adults, dermal source", "setting": "[1]", "value": "stimulated angiogenesis"},
      {"measurement": "perfusion in the ischemic limbs", "setting": "[2]; 1 mg/kg/day subcutaneous infusion, 10-14 days following ischemic injury, vs vehicle", "value": "significantly increased perfusion"},
      {"measurement": "perfusion in the non-ischemic limb", "setting": "[2]; 1 mg/kg/day systemic infusion", "value": "increased perfusion"},
      {"measurement": "ischemic non-ischemic ratio of perfusion", "setting": "[2]; 14 days of hind limb ischemia, vs vehicle", "value": "no differences"}
    ]}
  ]
}
